Calls of active or inactive are those of the source. The rule behind the calls is not given here.
Assays:
A2780 [1] = experiment: Induction of apoptosis in human A2780 cells assessed as early apoptotic cells at 200 nM incubated for 96 hrs by Annexin-V/FITC and PI staining based flow cytometry analysis (reference value: 14.14%); format: functional
A2780 [2] = experiment: Induction of apoptosis in human A2780 cells assessed as necrotic cells at 100 nM incubated for 96 hrs by Annexin-V/FITC and PI staining based flow cytometry analysis (reference value: 2.07%); format: functional
A2780 [3] = experiment: Inhibition of MT-ND4L expression in human A2780 cells at 100 nM incubated for 12 hrs by RNA sequencing analysis; format: functional, cell-based
A2780 [4] = experiment: Inhibition of MT-CO3 expression in human A2780 cells at 100 nM incubated for 12 hrs by RNA sequencing analysis; format: functional, cell-based
A2780 [5] = experiment: Inhibition of mitochondrial transcript in human A2780 cells by RT-qPCR analysis; format: functional, cell-based; conditions: dose 0.01-1 µM
A2780 [6] = experiment: Inhibition of mitochondrial transcript in human A2780 cells assessed as decrease in CYTB expression by RT-qPCR analysis; format: functional, cell-based
A2780 [7] = experiment: Effect on beta-actin mRNA level in human A2780 cells by RT-qPCR analysis; format: functional, cell-based

In the case of `Cc1ccc(-c2cc(=O)oc3cc(O[C@H](C)C(=O)N4CC5CCC(C4)N5C)ccc23)c(C)c1`, the Activity (A2780 [1]) is reported as 0.73%, the Activity (A2780 [2]) is reported as 4.46% and the inhibition (A2780 [3]) is reported as “Active”. The inhibition (A2780 [4]) was “Active”, the inhibition (A2780 [5]) was “Dose-Dependent Effect” and the inhibition (A2780 [6]) was “Active”. The Activity (A2780 [7]) was “inactive”.
